Each structure is given as a SMILES string. Read-outs that look alike come from different tables or passages of the source.

Experiment [1] concerns HCV genotype 1a (H77 strain) replicon in HUH-7 cells. The experiment can be described thus: HCV replicon luciferase reporter assay, genotype 1a. The class given is cell-based. Particulars: Hepatitis C virus, Huh-7, 72 h, 3 days incubation. In a few lines:
(§1)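 Replicon inhibition for both genotypes was measured as Renilla luciferase signal (EnduRen, 7.5 μM final, 2 h) after 3-day, 37° C exposure of replicon-bearing HUH-7 cells in 4% FCS DMEM, 0.5% DMSO. The 1b construct carries S1179I; the 1a H77 construct carries P1496L and S2204I. Twenty-point, 3-fold dilutions were fitted four-parametrically for EC50, and CC50 was taken from multiplexed Cell Titer-Blue.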
In general terms: A replicon is a self-replicating genome or part of one, used to study replication in cells.

Experiment [2] relates to HCV genotype 1b (Con1) replicon in HUH-7 cells. As to the kind of experiment: HCV replicon luciferase reporter assay, genotype 1b. Particulars: Hepatitis C virus, Huh-7, 72 h, 3 days incubation. The class given is cell-based. The method in brief:
as §1

Setting [3] is: GETYPE1A, HCV genotype 1a replicon luciferase, read-out: LE_1a (EC50, range).
[4] abbreviates: GETYPE1B, HCV genotype 1b replicon luciferase, read-out: LE_1b (EC50, range).
[5] abbreviates: HCV genotype 1a replicon luciferase assay, range class, read-out: LE_1a (EC50, range).
The mark [6] stands for this setting: HCV genotype 1b replicon luciferase assay, range class, read-out: LE_1b (EC50, range).

As usually defined, the EC50 is the concentration needed to bring the measured effect to its halfway point. `CC[C@@H]1C[C@H](C)CC/C=C\[C@@H]2C[C@@]2(C(=O)NS(=O)(=O)C2(C)CC2)NC(=O)[C@@H]2C[C@@H](Oc3cc(OC)nc4cc(OC)ccc34)CN2C(=O)[C@H]1NC(=O)OC(C)(C)C(C)(F)F` [Compound 1210]: the EC50 is 1.01 to 5 nM in experiment [1] (setting [3]) and 0.51 to 1 nM in experiment [2] (setting [4]).

In the case of `CC[C@@H]1C[C@H](C)CC/C=C\[C@@H]2C[C@@]2(C(=O)NS(=O)(=O)C2CC2)NC(=O)[C@@H]2C[C@@H](Oc3cc(OC)nc4cc(OC)ccc34)CN2C(=O)[C@H]1NC(=O)OC(C)(C)C(F)(F)F` [Compound 1211], the figures for the EC50 in experiment [1] (setting [3]) and in experiment [2] (setting [4]) were 1.01 to 5 nM and 0.51 to 1 nM, respectively.

Consider `CC[C@@H]1C[C@H](C)CC/C=C\[C@@H]2C[C@@]2(C(=O)NS(=O)(=O)C2CC2)NC(=O)[C@@H]2C[C@@H](Oc3cc(OC)nc4cc(OC)ccc34)CN2C(=O)[C@H]1NC(=O)OC(C)(C)C(C)(F)F` [Compound 1212], for which the values for the EC50 in experiment [1] (setting [3]) and in experiment [2] (setting [4]) were 1.01 to 5 nM and 0.1 to 0.5 nM, respectively.

Regarding `COc1ccc2c(O[C@@H]3C[C@H]4C(=O)N[C@]5(C(=O)NS(=O)(=O)C6(C)CC6)C[C@H]5/C=C\CC[C@@H](C)C[C@@H](C)[C@H](NC(=O)OC(C)(C)C(F)(F)F)C(=O)N4C3)cc(OC)nc2c1` [Compound 1213], the 50% effective concentration (EC50) lay within 1.01 to 5 nM in experiment [1] (setting [3]) and 0.51 to 1 nM in experiment [2] (setting [4]).

Take `COc1ccc2c(O[C@@H]3C[C@H]4C(=O)N[C@]5(C(=O)NS(=O)(=O)C6(C)CC6)C[C@H]5/C=C\CC[C@@H](C)C[C@@H](C)[C@H](NC(=O)OC(C)(C)C(C)(F)F)C(=O)N4C3)cc(OC)nc2c1` [Compound 1214]: the concentration giving a half-maximal response (EC50) in experiment [1] (setting [3]) lay within 1.01 to 5 nM; in experiment [2] (setting [4]) it was 0.1 to 0.5 nM.

On to `C[C@@H]1CCC(O)C[C@@H]2C[C@@]2(C(=O)NS(=O)(=O)C2(C)CC2)NC(=O)[C@@H]2C[C@@H](Oc3ncc(OC4CC4)c4ccccc34)CN2C(=O)[C@@H](NC(=O)OC(C)(C)C(F)(F)F)[C@H](C)C1` (stereo partly drawn) [Compound 2001, 1,1,1-trifluoro-2-methylpropan-2-yl ((2R,6S,7R,9R,13aS,14aR,16aS)-2-((4-cyclopropoxyisoquinolin-1-yl)oxy)-12-hydroxy-7,9-dimethyl-14a-(((1-methylcyclopropyl)sulfonyl)carbamoyl)-5,16-dioxooctadecahydrocyclopropa[e]pyrrolo[1,2-a][1,4]diazacyclopentadecin-6-yl)carbamate], for which the concentration giving a half-maximal response (EC50) in experiment [1] (setting [5]) and in experiment [2] (setting [6]) was 4.82 to 103 nM each time.

Turning to `C[C@@H]1CCCC(O)[C@@H]2C[C@@]2(C(=O)NS(=O)(=O)C2(C)CC2)NC(=O)[C@@H]2C[C@@H](Oc3ncc(OC4CC4)c4ccccc34)CN2C(=O)[C@@H](NC(=O)OC(C)(C)C(F)(F)F)[C@H](C)C1` (stereo partly drawn) [Compound 2002], the concentration giving a half-maximal response (EC50) in experiment [1] (setting [5]) and in experiment [2] (setting [6]) was 4.82 to 103 nM in each case.

For the compound `C[C@@H]1CC/C=C\[C@@H]2C[C@@]2(C(=O)NS(=O)(=O)C2(C)CC2)NC(=O)[C@@H]2C[C@@H](Oc3nccc4cc(OCC(=O)O)ccc34)CN2C(=O)[C@@H](NC(=O)OC(C)(C)C)[C@H](C)C1` [Compound 2003, 2-((1-(((2R,6S,7R,9R,13aS,14aR,16aS,Z)-6-((tert-butoxycarbonyl)amino)-7,9-dimethyl-14a-(((1-methylcyclopropyl)sulfonyl)carbamoyl)-5,16-dioxo-1,2,3,5,6,7,8,9,10,11,13a,14,14a,15,16,16a-hexadecahydrocyclopropa[e]pyrrolo[1,2-a][1,4]diazacyclopentadecin-2-yl)oxy)isoquinolin-6-yl)oxy)acetic acid], the EC50 is > 87.4 nM in experiment [1] (setting [5]); 330 nM in experiment [1] (HCV genotype 1a replicon luciferase assay, read-out: LE_1a (EC50)); > 87.4 nM in experiment [2] (setting [6]); 158 nM in experiment [2] (HCV genotype 1b replicon luciferase assay, read-out: LE_1b (EC50)).

The values above are taken from patent US9499550B2 (BRISTOL-MYERS SQUIBB COMPANY, priority 2012, dated 2016).
